Tests used:
[1] = test system: MC38_sgStk11 tumor; experiment: Re-challenge of survived animals of Example 1 with MC38_sgStk11 cells; type: in vivo, Mus musculus; details: off-treatment
Method: Summary: A re-challenge study of Example 1 was performed to evaluate whether the survived animals from Example 1 had acquired T memory against the same tumor.
Experimental Design & Materials: The survived animals of the efficacy part were re-challenged with MC38_sgStk11 cells respectively in the opposite side of primary tumors.
The MC38_sgStk11 tumor cells were maintained in vitro as a monolayer culture in DMEM+2 mM glutamine supplemented with about 10% heat inactivated fetal bovine serum, 100 U/ml penicillin and 100 μg/ml streptomycin at about 37° C. in an atmosphere of about 5% CO2 in air. The tumor cells were routinely sub-cultured twice weekly by trypsin-EDTA treatment. The cells growing in an exponential growth phase were harvested and counted for tumor inoculation.
Mice were inoculated subcutaneously at the left lower flank with MC38_sgStk11 tumor cells (0.5×106) in 0.1 ml of PBS for tumor development. The animal numbers and the cell numbers for each group are shown in the experimental design (Table 2-1). The survived animals from the Example 1 were under post-treatment monitoring for 21 days before re-challenge.
All the procedures related to animal handling, care and the treatment in the study were performed according to the guidelines approved by the Institutional Animal Care and Use Committee (IACUC) of vendor following the guidance of the Association for Assessment and Accreditation of Laboratory Animal Care (AAALAC). At the time of routine monitoring, the animals were daily checked for any effects of tumor growth and treatments on normal behavior such as mobility, food and water consumption, body weight gain/loss (body weights were measured twice per week), eye/hair matting and any other abnormal effect as stated in the protocol. Death and observed clinical signs were recorded on the basis of the numbers of animals within each subset.
Tumor size was measured three times per week in […] using a caliper, and the volume was expressed in mm3 using the formula: V=0.5 a×b2 where a and b are the long and short diameters of the tumor, respectively.

[2] = molecular target: T1, HDAC6 (Homo sapiens, UniProt Q9UBN7); experiment: Cellular NanoBRET assay, HDAC6; type: cell-based
T1 construct: expressed in transfected cells

[3] = Caverage in mice with STK11-deleted MC38 tumors; type: in vivo, mouse; details: doses used in FIG. 12B and 12C
[4] = Pharmacokinetics in cynomolgus monkeys; type: in vivo; details: cynomolgus monkey, plasma
Method: The PK of Compound I in male cynomolgus monkeys was determined in plasma following single IV bolus and PO administration to non-naïve male cynomolgus s monkeys The vehicle used for IV was 20% wt/vol HPβCD, 1% vol/vol DMSO in saline and for PO was in 0.5% MC (suspension). Plasma samples were collected from 3 animals/group at 0.083, 0.25, 0.5, 1, 3, 6, 9, 12, 24, and 48 hours after dosing.

[5] = molecular target: CYP2C9 (Homo sapiens, UniProt P11712); experiment: Metabolism by recombinant human CYP2C9; type: in vitro ADME; details: read-out: terminal half life (T1/2), rh CYP2C9
Method: (§1) Drug metabolizing enzymes involved in the biotransformation of Compound I were investigated using human liver microsomes (HLM) and recombinant enzymes. Compound I was stable in HLMs (>93% remaining after 240 minutes of incubation with HLM protein concentration at 0.6 mg/ml). CYP selective inhibitor experiments were not performed due to lack of appreciable Compound I turnover.

[6] = test system: CYP3A4/5; experiment: Metabolism by recombinant human CYP3A4/5; type: in vitro ADME; details: read-out: terminal half life (T1/2), rh CYP3A4/5
Method: as §1

[7] = Predicted human PK; details: calculated from rodent and dog data
Method: The human PK parameters for a dose of Compound I that is predicted to be efficacious were calculated based on the data from rodent and dog studies and are presented in Table 6.

[8] = test system: acetyl-histone H3; experiment: PK/PD study, acetyl-histone H3 in tumor by Western blot; type: in vivo, C57BL/6 mice
Method: In a separate PK/PD study, MC38 tumor-bearing female C57BL/6 mice (12/group) were assigned to treatment groups with similar mean tumor volumes of approximately 430 mm^3 and treated with vehicle (5% N,N-dimethylacetamide [DMA]+30% polyethylene glycol [PEG] 400+65% of 30% 2-hydroxypropyl-beta-cyclodextrin [HP-β-CD] in water) or Compound I at 30, 100, and 300 mg/kg once daily (QD) for 2 days. Plasma samples were collected at 1, 2, 8 and 24 hours after last dose and analyzed for Compound I concentrations. Peripheral blood mononuclear cells (PBMC) and tumor samples were harvested at 2, 8, and 24 hours after last dose. The PBMC samples were processed for determination of mean florescent level of acetyl-histone H2B by flow cytometry. Tumor samples were processed for determination of protein levels of acetyl-histone H3 by Western blot.

[9] = test system: A549 cells; experiment: Nanostring PanCancer IO360 profiling of A549 cells; type: cell-based; details: 96 hours; dose that increased H3K9Ac two-fold; vs vorinostat and domatinostat
Method: In this example, the gene expression changes between CoreDAC and other HDAC inhibitors was determined by Nanostring profiling.
Cells were harvested and Nanostring profiling using the PanCancer IO360 panel was performed on the three treatment groups (FIGS. 11A-C). The top three ranked gene ontology groups for each compound as determined from the Nanostring data in (FIGS. 11A-C top panel) were determined using the nSolver software (FIGS. 11A-C bottom panel).

T1 sequence (Q9UBN7 whole entry): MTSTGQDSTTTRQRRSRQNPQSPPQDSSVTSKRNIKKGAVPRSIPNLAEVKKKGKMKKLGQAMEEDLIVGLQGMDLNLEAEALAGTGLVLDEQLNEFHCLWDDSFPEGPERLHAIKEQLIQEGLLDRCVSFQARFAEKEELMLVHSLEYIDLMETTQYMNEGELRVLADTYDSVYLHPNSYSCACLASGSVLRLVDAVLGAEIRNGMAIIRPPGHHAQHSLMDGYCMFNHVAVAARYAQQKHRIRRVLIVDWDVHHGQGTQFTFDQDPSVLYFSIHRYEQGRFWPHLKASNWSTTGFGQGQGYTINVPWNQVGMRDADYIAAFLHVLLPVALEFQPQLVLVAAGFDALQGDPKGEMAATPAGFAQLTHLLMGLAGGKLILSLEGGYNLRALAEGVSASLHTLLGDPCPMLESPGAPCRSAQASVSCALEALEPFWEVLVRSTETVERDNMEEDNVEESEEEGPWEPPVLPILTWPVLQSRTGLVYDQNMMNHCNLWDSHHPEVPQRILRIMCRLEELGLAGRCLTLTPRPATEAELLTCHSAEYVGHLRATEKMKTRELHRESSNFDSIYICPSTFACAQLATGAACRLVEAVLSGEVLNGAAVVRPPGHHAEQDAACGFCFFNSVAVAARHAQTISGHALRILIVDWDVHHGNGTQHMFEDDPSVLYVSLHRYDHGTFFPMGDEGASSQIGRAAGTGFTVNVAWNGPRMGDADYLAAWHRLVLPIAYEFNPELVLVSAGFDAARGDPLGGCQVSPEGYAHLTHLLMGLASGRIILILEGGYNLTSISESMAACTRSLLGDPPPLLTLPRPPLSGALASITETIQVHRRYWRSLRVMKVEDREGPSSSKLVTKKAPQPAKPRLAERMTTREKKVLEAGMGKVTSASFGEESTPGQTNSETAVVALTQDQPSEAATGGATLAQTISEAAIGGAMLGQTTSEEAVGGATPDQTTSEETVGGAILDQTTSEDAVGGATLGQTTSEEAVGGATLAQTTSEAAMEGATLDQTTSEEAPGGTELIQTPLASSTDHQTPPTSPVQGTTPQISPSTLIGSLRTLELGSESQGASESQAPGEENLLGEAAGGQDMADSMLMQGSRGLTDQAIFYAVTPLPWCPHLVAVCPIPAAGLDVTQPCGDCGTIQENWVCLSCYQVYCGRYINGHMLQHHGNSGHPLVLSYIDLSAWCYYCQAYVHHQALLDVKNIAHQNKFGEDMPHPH
Sequence of CYP2C9 (P11712 whole entry): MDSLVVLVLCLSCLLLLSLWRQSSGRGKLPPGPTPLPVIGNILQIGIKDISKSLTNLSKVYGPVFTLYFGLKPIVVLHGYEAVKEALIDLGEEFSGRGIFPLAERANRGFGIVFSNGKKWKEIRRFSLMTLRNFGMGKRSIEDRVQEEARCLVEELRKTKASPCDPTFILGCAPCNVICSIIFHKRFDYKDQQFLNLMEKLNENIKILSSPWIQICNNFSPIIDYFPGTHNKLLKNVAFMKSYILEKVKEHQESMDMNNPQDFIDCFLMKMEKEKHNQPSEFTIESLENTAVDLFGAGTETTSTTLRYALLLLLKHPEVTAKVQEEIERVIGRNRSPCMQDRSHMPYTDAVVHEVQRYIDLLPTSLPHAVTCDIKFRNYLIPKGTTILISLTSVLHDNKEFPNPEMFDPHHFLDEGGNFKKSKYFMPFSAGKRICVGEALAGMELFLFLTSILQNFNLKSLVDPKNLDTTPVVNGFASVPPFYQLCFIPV

C[S@@](=N)(=O)c1ccc(C(=O)Nc2cc(-c3ccc(F)cc3)ccc2N)cc1 [Compound I, (R)—N-(4-amino-4′-fluoro-[1,1′-biphenyl]-3-yl)-4-(S-methylsulfonimidoyl)benzamide]
Tumor Volume after re-challenge ([1]; Re-challenge Gr 2: survivor of Ex. 1 Gr. 5 (Anti-IgG2a + Compound I 75 mg/kg), day 0 after cell inoculation): 0 mm^3
Tumor Volume after re-challenge ([1]; Re-challenge Gr 2: survivor of Ex. 1 Gr. 5 (Anti-IgG2a + Compound I 75 mg/kg), day 3 after cell inoculation): 17 mm^3
Tumor Volume after re-challenge ([1]; Re-challenge Gr 2: survivor of Ex. 1 Gr. 5 (Anti-IgG2a + Compound I 75 mg/kg), day 5 after cell inoculation): 25 mm^3
Tumor Volume after re-challenge ([1]; Re-challenge Gr 2: survivor of Ex. 1 Gr. 5 (Anti-IgG2a + Compound I 75 mg/kg), day 8 after cell inoculation): 6 mm^3
Tumor Volume after re-challenge ([1]; Re-challenge Gr 2: survivor of Ex. 1 Gr. 5 (Anti-IgG2a + Compound I 75 mg/kg), day 10 after cell inoculation): 0 mm^3
Tumor Volume after re-challenge ([1]; Re-challenge Gr 2: survivor of Ex. 1 Gr. 5 (Anti-IgG2a + Compound I 75 mg/kg), day 12 after cell inoculation): 0 mm^3
Tumor Volume after re-challenge ([1]; Re-challenge Gr 2: survivor of Ex. 1 Gr. 5 (Anti-IgG2a + Compound I 75 mg/kg), day 15 after cell inoculation): 0 mm^3
Tumor Volume after re-challenge ([1]; Re-challenge Gr 2: survivor of Ex. 1 Gr. 5 (Anti-IgG2a + Compound I 75 mg/kg), day 17 after cell inoculation): 0 mm^3
Tumor Volume after re-challenge ([1]; Re-challenge Gr 2: survivor of Ex. 1 Gr. 5 (Anti-IgG2a + Compound I 75 mg/kg), day 19 after cell inoculation): 0 mm^3
Tumor Volume after re-challenge ([1]; Re-challenge Gr 7: survivors of Ex. 1 Gr. 12 (head prints Anti-IgG2a + Compound I 150 mg/kg D0-D4, 100 mg/kg D5-D48), day 0 after cell inoculation): 0 ± 0 mm^3
Tumor Volume after re-challenge ([1]; Re-challenge Gr 7: survivors of Ex. 1 Gr. 12 (head prints Anti-IgG2a + Compound I 150 mg/kg D0-D4, 100 mg/kg D5-D48), day 3 after cell inoculation): 27 ± 2 mm^3
Tumor Volume after re-challenge ([1]; Re-challenge Gr 7: survivors of Ex. 1 Gr. 12 (head prints Anti-IgG2a + Compound I 150 mg/kg D0-D4, 100 mg/kg D5-D48), day 5 after cell inoculation): 27 ± 1 mm^3
Tumor Volume after re-challenge ([1]; Re-challenge Gr 7: survivors of Ex. 1 Gr. 12 (head prints Anti-IgG2a + Compound I 150 mg/kg D0-D4, 100 mg/kg D5-D48), day 8 after cell inoculation): 6 ± 0 mm^3
Tumor Volume after re-challenge ([1]; Re-challenge Gr 7: survivors of Ex. 1 Gr. 12 (head prints Anti-IgG2a + Compound I 150 mg/kg D0-D4, 100 mg/kg D5-D48), day 10 after cell inoculation): 0 ± 0 mm^3
Tumor Volume after re-challenge ([1]; Re-challenge Gr 7: survivors of Ex. 1 Gr. 12 (head prints Anti-IgG2a + Compound I 150 mg/kg D0-D4, 100 mg/kg D5-D48), day 12 after cell inoculation): 0 ± 0 mm^3
Tumor Volume after re-challenge ([1]; Re-challenge Gr 7: survivors of Ex. 1 Gr. 12 (head prints Anti-IgG2a + Compound I 150 mg/kg D0-D4, 100 mg/kg D5-D48), day 15 after cell inoculation): 0 ± 0 mm^3
Tumor Volume after re-challenge ([1]; Re-challenge Gr 7: survivors of Ex. 1 Gr. 12 (head prints Anti-IgG2a + Compound I 150 mg/kg D0-D4, 100 mg/kg D5-D48), day 17 after cell inoculation): 0 ± 0 mm^3
Tumor Volume after re-challenge ([1]; Re-challenge Gr 7: survivors of Ex. 1 Gr. 12 (head prints Anti-IgG2a + Compound I 150 mg/kg D0-D4, 100 mg/kg D5-D48), day 19 after cell inoculation): 0 ± 0 mm^3
IC50 [2]: > 30 µM
Cavg, u [3]: 0.192 µM
Fold of HDAC1 IC50 (Caverage coverage) [3]: 3.5 fold
bioavailability ([4]; po, male cynomolgus monkeys, suspension at 3 mg/kg, fed, read-out: PO bioavailability (% F)): 83%
half-life ([4]; male): 408 min
clearance ([4]; male, intravenous, read-out: CL, p): 9.4 mL/min/kg
half-life [5]: > 60 min
half-life [6]: > 60 min
% F [7]: 78%
MRT [7]: 9.5 h
T1/2 [7]: 6.6 h
Total AUC ([7]; dose predicted to be efficacious): 6.3 µg·h/mL
maximal induction of histone acetylation in tumor ([8]; 300 mg/kg QD, 2 days, 24 hours after last dose, vs vehicle control): 3.7 fold
tumor acetyl-histone protein levels ([8]; 30, 100, 300 mg/kg QD, starting 2 hours after last dose): dose-dependent increase
number of genes regulated [9]: regulates the expression of fewer genes
